Experimental findings from ChEMBL document CHEMBL4609979, “Design of enkephalin modifications protected from brain extracellular peptidases providing long-term analgesia” (Bioorg Med Chem, 2020) are described below.

Calls of active or inactive are those of the source. The calls are words filed in the database; no cut-off is given here. Where a SMILES comes first, the peptide text is derived from it. [ ]: non-standard residue; d: D form. βAla = NCCC(=O)O

Series [1] has as its system Rattus norvegicus. The experiment in a line: Analgesic activity in Wistar rat assessed as increase in tail flick latency at 0.4 uM/kg administered intranasally and measured upto 120 mins by tail-flick test. The format is functional, organism-based.
A short description of series [2]: Stability in bovine brain synaptosomes assessed as compound remaining at 0.35 mM incubated for 30 mins by thin layer chromatography analysis. The format is ADME, subcellular, Bos taurus. The following applies: cattle.
Series [3] can be described thus: Stability in bovine brain synaptosomes assessed as compound remaining at 0.35 mM incubated for 3 hrs by thin layer chromatography analysis. The format is ADME, subcellular, Bos taurus. As to conditions: cattle; for remaining at 3 h, 350 µM: brain synaptosomes, read-out: Stability.
Series [4] is described as follows: Acute toxicity in Wistar rat assessed as nausea at 2 uM/kg administered intranasally and measured after 20 mins. The following applies: in vivo, inhaled_or_intranasal.
Series [5] is described as follows: Acute toxicity in Wistar rat assessed as appetite at 2 uM/kg administered intranasally and measured after 20 mins. The following applies: in vivo, inhaled_or_intranasal.
Series [6] in a line: Acute toxicity in Wistar rat assessed as heart rate at 2 uM/kg administered intranasally and measured after 20 mins. As to conditions: in vivo, inhaled_or_intranasal.
A short description of series [7]: Acute toxicity in Wistar rat assessed as pathological abnormalities in tissues at 2 uM/kg administered intranasally and measured after 20 mins. As to conditions: in vivo, inhaled_or_intranasal.
Series [8] can be described thus: Acute toxicity in Wistar rat assessed as pathological abnormalities in organs at 2 uM/kg administered intranasally and measured after 20 mins. As to conditions: in vivo, inhaled_or_intranasal.
A short description of series [9]: Acute toxicity in Wistar rat assessed as animal activity at 2 uM/kg administered intranasally and measured after 20 mins. As to conditions: in vivo, inhaled_or_intranasal.
Series [10] in a line: Acute toxicity in Wistar rat assessed as arterial pressure at 2 uM/kg administered intranasally and measured after 20 mins. The following applies: in vivo, inhaled_or_intranasal.
Series [11] is described as follows: Toxicity in Wistar rat assessed as effect on memory by measuring average distance that has been travelled to previously placed platform at 0.4 uM/kg administered intranasally by Morris water maze test. As to conditions: in vivo, inhaled_or_intranasal.
Series [12] is described as follows: Acute toxicity in Wistar rat assessed as sleep at 2 uM/kg administered intranasally and measured after 20 mins. As to conditions: in vivo, inhaled_or_intranasal.
The nature of series [13]: Acute toxicity in Wistar rat assessed as irritability at 2 uM/kg administered intranasally and measured after 20 mins. The following applies: in vivo, inhaled_or_intranasal.
The nature of series [14]: Acute toxicity in Wistar rat assessed as animal death at 2 uM/kg administered intranasally and measured after 20 mins. As to conditions: in vivo, inhaled_or_intranasal.

`CSCC[C@H](NC(=O)[C@H](Cc1ccccc1)NC(=O)CNC(=O)CNC(=O)[C@@H](N)Cc1ccc(O)cc1)C(=O)O`: in series [1], the result was Active. Besides, the Stability result in series [2] (0.5 h, 350 µM) is reported as “Unstable”.

Consider `NCCC(=O)N[C@@H](Cc1ccc(O)cc1)C(=O)NCC(=O)N[C@@H](Cc1ccccc1)C(N)=O` (H-[βAla]YGF-NH2), for which the remaining at 3 h, 350 µM in series [3] was 75%. In series [1], the result was inactive.

In the case of `C[C@H](N)C(=O)N[C@@H](CCCCN)C(=O)N[C@@H](Cc1ccccc1)C(=O)O` (H-Ala-Lys-Phe-OH), the remaining at 0.5 h, 350 µM in series [2] (brain synaptosomes, read-out: Stability) came to 0%.

On to `CSCC[C@H](NC(=O)[C@H](Cc1ccccc1)NC(=O)CNC(=O)CNC(=O)[C@H](Cc1ccc(O)cc1)NC(=O)CCN)C(=O)NCCC(=O)O` (H-[βAla]YGGFM[βAla]-OH), for which, in series [3], the remaining at 3 h, 350 µM came to 55%. Besides, in [1], the result was Active.

Turning to `NCCC(=O)N[C@@H](Cc1ccc(O)cc1)C(=O)NCC(=O)NCC(=O)N[C@@H](Cc1ccccc1)C(N)=O` (H-[βAla]YGGF-NH2), the Activity entry in [4], in series [5], in series [6], in [7], in series [8] and in series [9] was “Non-Toxic” each time. In addition, the Activity entry in series [10], in series [11], in series [12], in series [13] and in series [14] was “Non-Toxic” in each case. In addition, the remaining at 3 h, 350 µM in series [3] worked out at 75%. For the same compound, in [1], the outcome was Active.

Consider `C[C@H](NC(=O)CCN)C(=O)N[C@@H](CCCCN)C(=O)N[C@@H](Cc1ccccc1)C(=O)NCCC(=O)O` (H-[βAla]AKF[βAla]-OH), for which the Stability result in series [3] (3 h, 350 µM) was “Stable”.
